Experimental data taken from BigSolDB 2.1.

Compound: O=c1c2ccccc2sc2ccccc12
- solubility (mole fraction) (in 1,4-dioxane, 292.15 K): 0.00919
- solubility (mole fraction) (in 1,4-dioxane, 297.05 K): 0.01
- solubility (mole fraction) (in 1,4-dioxane, 302.05 K): 0.0109
- solubility (mole fraction) (in 1,4-dioxane, 305.05 K): 0.0115
- solubility (mole fraction) (in 1,4-dioxane, 307.95 K): 0.0121
- solubility (mole fraction) (in 1,4-dioxane, 311.15 K): 0.0127
- solubility (mole fraction) (in 1,4-dioxane, 313.85 K): 0.0134
- solubility (mole fraction) (in 1,4-dioxane, 316.85 K): 0.0141
- solubility (mole fraction) (in 1,4-dioxane, 319.35 K): 0.0146
- solubility (mole fraction) (in 1,4-dioxane, 322.55 K): 0.0153
- solubility (mole fraction) (in 1,4-dioxane, 326.55 K): 0.0163
- solubility (mole fraction) (in 1,4-dioxane, 331.55 K): 0.0175
- solubility (mole fraction) (in 1,4-dioxane, 335.95 K): 0.0186
- solubility (mole fraction) (in 2-butanone, 292.15 K): 0.00309
- solubility (mole fraction) (in 2-butanone, 297.05 K): 0.00398
- solubility (mole fraction) (in 2-butanone, 301.95 K): 0.00441
- solubility (mole fraction) (in 2-butanone, 306.65 K): 0.00519
- solubility (mole fraction) (in 2-butanone, 311.25 K): 0.00604
- solubility (mole fraction) (in 2-butanone, 316.15 K): 0.00696
- solubility (mole fraction) (in 2-butanone, 321.25 K): 0.00805
- solubility (mole fraction) (in 2-butanone, 326.55 K): 0.00947
- solubility (mole fraction) (in 2-butanone, 331.55 K): 0.0111
- solubility (mole fraction) (in 2-butanone, 335.95 K): 0.0124
- solubility (mole fraction) (in THF, 292.15 K): 0.00867
- solubility (mole fraction) (in THF, 297.05 K): 0.0101
- solubility (mole fraction) (in THF, 301.95 K): 0.0114
- solubility (mole fraction) (in THF, 306.65 K): 0.0129
- solubility (mole fraction) (in THF, 311.25 K): 0.0147
- solubility (mole fraction) (in THF, 316.15 K): 0.0167
- solubility (mole fraction) (in THF, 321.25 K): 0.0189
- solubility (mole fraction) (in THF, 326.55 K): 0.0213
- solubility (mole fraction) (in THF, 331.55 K): 0.024
- solubility (mole fraction) (in THF, 335.95 K): 0.0274
- solubility (mole fraction) (in acetone, 292.15 K): 0.00191
- solubility (mole fraction) (in acetone, 297.05 K): 0.00225
- solubility (mole fraction) (in acetone, 302.05 K): 0.00265
- solubility (mole fraction) (in acetone, 305.05 K): 0.00293
- solubility (mole fraction) (in acetone, 307.95 K): 0.00317
- solubility (mole fraction) (in acetone, 311.15 K): 0.00356
- solubility (mole fraction) (in acetone, 313.85 K): 0.00389
- solubility (mole fraction) (in acetone, 316.85 K): 0.00407
- solubility (mole fraction) (in acetone, 319.35 K): 0.00456
- solubility (mole fraction) (in acetone, 322.55 K): 0.00492
- solubility (mole fraction) (in acetone, 326.55 K): 0.0055
- solubility (mole fraction) (in acetonitrile, 292.15 K): 0.000466
- solubility (mole fraction) (in acetonitrile, 297.05 K): 0.000614
- solubility (mole fraction) (in acetonitrile, 302.05 K): 0.000806
- solubility (mole fraction) (in acetonitrile, 305.05 K): 0.000947
- solubility (mole fraction) (in acetonitrile, 307.95 K): 0.0011
- solubility (mole fraction) (in acetonitrile, 311.15 K): 0.00132
- solubility (mole fraction) (in acetonitrile, 313.85 K): 0.00147
- solubility (mole fraction) (in acetonitrile, 316.85 K): 0.0017
- solubility (mole fraction) (in acetonitrile, 319.35 K): 0.00192
- solubility (mole fraction) (in acetonitrile, 322.55 K): 0.00225
- solubility (mole fraction) (in acetonitrile, 326.55 K): 0.0027
- solubility (mole fraction) (in acetonitrile, 331.55 K): 0.00336
- solubility (mole fraction) (in acetonitrile, 335.95 K): 0.00411
- solubility (mole fraction) (in dichloromethane, 292.15 K): 0.00692
- solubility (mole fraction) (in dichloromethane, 297.05 K): 0.00849
- solubility (mole fraction) (in dichloromethane, 301.95 K): 0.00981
- solubility (mole fraction) (in dichloromethane, 306.65 K): 0.0114
- solubility (mole fraction) (in dichloromethane, 311.25 K): 0.0134
- solubility (mole fraction) (in ethanol, 292.15 K): 0.000194
- solubility (mole fraction) (in ethanol, 297.05 K): 0.000289
- solubility (mole fraction) (in ethanol, 302.05 K): 0.000428
- solubility (mole fraction) (in ethanol, 305.05 K): 0.000544
- solubility (mole fraction) (in ethanol, 307.95 K): 0.000657
